Results: patent US4788301A, “Novel allylic amines” (Merrell Dow Pharmaceuticals Inc., priority 1987, dated 1988)
Entries after “also recorded” stand apart in the source; their conditions may differ.

Key:
[1] = tested on: Rat Brain - Mitochondrial MAO; experiment: Time-dependant inhibition of rat brain mitochondrial MAO (Table III); assay type: biochemical
Procedure: (§1) The compounds of this invention were conceived as mechanism-based inhibitors of DBH similar to that reported by S. May, J. Biol. Chem. 256, 2258 (1981). These compounds bear some resemblance to the catecholamines which are destroyed by the enzyme monoamine oxidase (MAO) in order to terminate neurotransmission. Because of their structural similarity to the catecholamines they may act as MAO substrates and, as such, act as k cat inhibitors of MAO. These compounds were evaluated as mechanism-based inhibitors of monooxygenasess by the method of A. Christmas et. al., Br. J. Pharmacol. 45, 490 (1972).

purified DBH = experiment: Time-dependant inhibition of purified DBH (Table III); assay type: biochemical
Procedure: The dopamine β-hydroxylase inhibitory properties of the compounds of this invention can readily be determined by standard and well known procedures such as those procedures set forth in U.S. Pat. No. 4,415,191. For example, determination of whether the DBH inhibition allows time-dependent kinetics is exemplified by the procedure wherein enzymatic oxygenation by DBH is determined in aqueous solution in the presence of molecular oxygen, an electron donor such as ascorbate, and the necessary cofactors for the enzyme at a pH of 5 and a temperature of 20°-40° C., preferably 37° C. The test compound is added at the desired concentration, and the system is incubated. At different time intervals, aliquots are taken and DBH activity is measured using tyramine as the substrate and the reaction followed by measuring the oxygen uptake using a polarographic electrode and an oxygen monitor by the method of S. May et al., J. Biol. Chem. 256, 2258 (1981). The inhibition constants for the inactivation of DBH by each compound are then determined by conventional procedures such as the method of Kitz and Wilson, J. Biol. Chem. 237, 3245 (1962). When the compounds shown in Table I were tested according to the above described procedure, the DBH inhibitory activity increased as a function of the time of incubation. […]

MAO B = molecular target: T1, MAO B (Rattus norvegicus, UniProt P19643); experiment: Inhibition of rat brain mitochondrial MAO B (Table III); assay type: biochemical
T1 construct: from tissue; host or cells: rat brain mitochondria
T1 sequence (P19643 1-520): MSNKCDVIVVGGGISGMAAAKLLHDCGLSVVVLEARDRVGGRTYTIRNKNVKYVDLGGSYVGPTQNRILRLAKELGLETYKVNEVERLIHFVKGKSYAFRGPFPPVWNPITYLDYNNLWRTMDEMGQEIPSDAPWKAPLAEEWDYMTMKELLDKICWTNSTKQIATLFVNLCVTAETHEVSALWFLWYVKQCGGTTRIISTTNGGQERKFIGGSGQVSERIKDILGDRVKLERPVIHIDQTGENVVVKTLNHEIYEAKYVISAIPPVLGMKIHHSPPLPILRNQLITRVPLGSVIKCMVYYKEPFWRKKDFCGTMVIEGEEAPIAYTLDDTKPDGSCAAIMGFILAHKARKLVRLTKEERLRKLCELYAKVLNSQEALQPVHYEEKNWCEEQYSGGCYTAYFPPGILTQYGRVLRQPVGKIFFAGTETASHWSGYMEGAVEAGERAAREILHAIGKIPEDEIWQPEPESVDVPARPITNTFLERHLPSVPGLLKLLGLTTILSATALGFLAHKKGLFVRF
Procedure: as §1

[2] = molecular target: T2, dopamine β-hydroxylase (DBH) (Bos taurus, UniProt P15101); experiment: Dopamine β-hydroxylase (DBH) inhibitory activity in vitro, time-dependent inactivation (Table I); assay type: biochemical; conditions: for Ki: inhibition constant for inactivation of DBH; for Ki / kinact: tyramine substrate, pH 5, Kitz and Wilson; for kinact: rate of inactivation of DBH
T2 sequence (P15101 1-610): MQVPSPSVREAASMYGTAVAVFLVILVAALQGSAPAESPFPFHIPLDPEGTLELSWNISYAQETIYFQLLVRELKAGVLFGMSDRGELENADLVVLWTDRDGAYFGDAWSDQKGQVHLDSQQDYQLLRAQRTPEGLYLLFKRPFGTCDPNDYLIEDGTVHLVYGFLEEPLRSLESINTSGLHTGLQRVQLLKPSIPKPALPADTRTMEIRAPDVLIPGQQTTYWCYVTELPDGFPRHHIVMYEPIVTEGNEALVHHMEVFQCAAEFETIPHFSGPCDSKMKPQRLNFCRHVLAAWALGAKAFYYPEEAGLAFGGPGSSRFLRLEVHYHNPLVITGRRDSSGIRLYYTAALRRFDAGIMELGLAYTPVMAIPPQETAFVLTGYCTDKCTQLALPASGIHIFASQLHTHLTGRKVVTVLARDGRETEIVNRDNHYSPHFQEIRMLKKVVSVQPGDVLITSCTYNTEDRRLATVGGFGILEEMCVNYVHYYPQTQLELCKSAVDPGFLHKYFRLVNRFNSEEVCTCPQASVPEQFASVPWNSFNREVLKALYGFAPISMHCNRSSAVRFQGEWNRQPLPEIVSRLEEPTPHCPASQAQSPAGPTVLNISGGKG
Procedure: The dopamine β-hydroxylase inhibitory properties of the compounds of this invention can readily be determined by standard and well known procedures such as those procedures set forth in U.S. Pat. […] For example, determination of whether the DBH inhibition allows time-dependent kinetics is exemplified by the procedure wherein enzymatic oxygenation by DBH is determined in aqueous solution in the presence of molecular oxygen, an electron donor such as ascorbate, and the necessary cofactors for the enzyme at a pH of 5 and a temperature of 20°-40° C., preferably 37° C. The test compound is added at the desired concentration, and the system is incubated. At different time intervals, aliquots are taken and DBH activity is measured using tyramine as the substrate and the reaction followed by measuring the oxygen uptake using a polarographic electrode and an oxygen monitor by the method of S. May et al., J. Biol. Chem. 256, 2258 (1981). The inhibition constants for the inactivation of DBH by each compound are then determined by conventional procedures such as the method of Kitz and Wilson, J. Biol. Chem. 237, 3245 (1962). When the compounds shown in Table I were tested according to the above described procedure, the DBH inhibitory activity increased as a function of the time of incubation. The initial rate of decrease of activity increased with increasing concentration of inhibitor.

hypertensive rats = experiment: Antihypertensive activity in vivo in hypertensive rats (Table II); parameters: species or system rat
Procedure: The ability of the compounds of this invention to lower blood pressure can be determined in vivo using hypertensive rats according to standard and well known procedures. The test compound is administered intraperitoneally (ip) or orally (po) to rats and the blood pressure monitored continuously. Since DBH is a major enzyme in the synthetic pathway of the catecholamines, it would be expected that the presence of an inhibitor would act to decrease the amount of catecholamines produced, and thereby have an antihypertensive effect.

MAO A = molecular target: T3, MAO A (Rattus norvegicus, UniProt P21396); experiment: Inhibition of rat brain mitochondrial MAO A (Table III); assay type: biochemical
T3 construct: from tissue; host or cells: rat brain mitochondria
T3 sequence (P21396 1-526): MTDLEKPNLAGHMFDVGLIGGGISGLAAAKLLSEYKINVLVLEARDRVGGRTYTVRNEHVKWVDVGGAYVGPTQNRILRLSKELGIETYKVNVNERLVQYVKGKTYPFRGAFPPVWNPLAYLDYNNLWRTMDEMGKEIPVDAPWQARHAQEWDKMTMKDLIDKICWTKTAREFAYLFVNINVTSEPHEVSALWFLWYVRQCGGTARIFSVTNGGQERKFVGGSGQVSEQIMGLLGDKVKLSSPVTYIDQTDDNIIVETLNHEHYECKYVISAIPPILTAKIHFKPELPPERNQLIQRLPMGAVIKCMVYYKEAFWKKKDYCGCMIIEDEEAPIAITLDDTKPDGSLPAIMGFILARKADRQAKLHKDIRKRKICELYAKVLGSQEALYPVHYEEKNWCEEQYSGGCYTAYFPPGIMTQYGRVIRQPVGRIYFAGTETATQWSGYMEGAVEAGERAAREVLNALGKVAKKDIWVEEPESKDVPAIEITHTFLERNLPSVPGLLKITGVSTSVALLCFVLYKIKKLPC
Procedure: as §1

Ki (MAO B)	MAO B Tau50 (MAO B)	Relative DBH inhibitory potency of the isomers ([2]; 2- vs. 3-thiophene isomer, Table I)	Ki [2]	kinact [2]	Ki (MAO A)	MAO A Tau50 (MAO A)	Structure (SMILES)	MAO inhibition (in words) [1]	Time-dependant inhibition t1/2 (purified DBH; 5.10^-5 M final concentration, purified DBH)	DBH inhibitory activity (in words) (purified DBH; compared with MAO inhibition)	Maximum % Change Mean Blood Pressure (hypertensive rats; 10 mg/kg ip)	Maximum % Change Mean Blood Pressure (hypertensive rats; 30 mg/kg ip)	Maximum % Change Mean Blood Pressure (hypertensive rats; 50 mg/kg po)	Maximum % Change Mean Blood Pressure (hypertensive rats; 100 mg/kg ip)	Maximum % Change Mean Blood Pressure (hypertensive rats; 100 mg/kg po)	Maximum % Change Mean Blood Pressure (hypertensive rats; 200 mg/kg po)
110 µM	4.9 min	the more potent isomer	2000 µM	0.000333 s⁻¹	320 µM	2.6 min	C=C(CN)c1cccs1 [β-Methylene-2-Thiopheneethanamine, β-methylene-2-thiopheneethanamine]	weak MAO inhibitory activity; also recorded: Weak time-dependant MAO inhibitor	7 min	potent DBH inhibitory activity	11%	22%	11%	52%	14%	14%
			2000 µM	6.67e-05 s⁻¹			C=C(CN)c1ccsc1 [β-Methylene-3-Thiopheneethanamine, β-methylene-3-thiopheneethanamine]									
